Source: PubChem BioAssay (NCI)
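Cells were grown in 96-well plates and exposed to each compound for 48 hours at five concentrations; endpoints were interpolated linearly between bracketing concentrations, or set to the highest concentration if not reached. TGI is the concentration that stops growth completely.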

How the values were obtained:
Assay in all cases: NCI tumour cell line growth inhibition, 48 h
786-0 renal = system: 786-0 renal
A498 renal = system: A498 renal
A549 NSCLC = system: A549 NSCLC
ACHN renal = system: ACHN renal
CAKI-1 renal = system: CAKI-1 renal
CCRF-CEM leukemia = system: CCRF-CEM leukemia
COLO 205 colon = system: COLO 205 colon
DMS 114 small cell lung = system: DMS 114 small cell lung
DMS 273 small cell lung = system: DMS 273 small cell lung
EKVX NSCLC = system: EKVX NSCLC
HCC-2998 colon = system: HCC-2998 colon
HCT-116 colon = system: HCT-116 colon
HCT-15 colon = system: HCT-15 colon
HL-60(TB) leukemia = system: HL-60(TB) leukemia
HOP-18 NSCLC = system: HOP-18 NSCLC
HOP-62 NSCLC = system: HOP-62 NSCLC
HOP-92 NSCLC = system: HOP-92 NSCLC
HT29 colon = system: HT29 colon
IGROV1 ovarian = system: IGROV1 ovarian
K-562 leukemia = system: K-562 leukemia
KM12 colon = system: KM12 colon
KM20L2 colon = system: KM20L2 colon
LOX IMVI melanoma = system: LOX IMVI melanoma
LXFL 529 NSCLC = system: LXFL 529 NSCLC
M14 melanoma = system: M14 melanoma
M19-MEL melanoma = system: M19-MEL melanoma
MALME-3M melanoma = system: MALME-3M melanoma
MOLT-4 leukemia = system: MOLT-4 leukemia
NCI-H226 lung = system: NCI-H226 lung
NCI-H23 lung = system: NCI-H23 lung
NCI-H460 lung = system: NCI-H460 lung
NCI-H522 lung = system: NCI-H522 lung
NCI/ADR-RES ovarian = system: NCI/ADR-RES ovarian
OVCAR-3 ovarian = system: OVCAR-3 ovarian
OVCAR-4 ovarian = system: OVCAR-4 ovarian
OVCAR-5 ovarian = system: OVCAR-5 ovarian
OVCAR-8 ovarian = system: OVCAR-8 ovarian
P388 leukemia = system: P388 leukemia
P388/ADR leukemia = system: P388/ADR leukemia
RPMI-8226 leukemia = system: RPMI-8226 leukemia
RXF 393 renal = system: RXF 393 renal
SF-268 CNS = system: SF-268 CNS
SF-295 CNS = system: SF-295 CNS
SF-539 CNS = system: SF-539 CNS
SK-MEL-2 melanoma = system: SK-MEL-2 melanoma
SK-MEL-28 melanoma = system: SK-MEL-28 melanoma
SK-MEL-5 melanoma = system: SK-MEL-5 melanoma
SK-OV-3 ovarian = system: SK-OV-3 ovarian
SN12C renal = system: SN12C renal
SN12K1 renal = system: SN12K1 renal
SNB-19 CNS = system: SNB-19 CNS
SNB-75 CNS = system: SNB-75 CNS
SR leukemia = system: SR leukemia
SW-620 colon = system: SW-620 colon
TK-10 renal = system: TK-10 renal
U251 CNS = system: U251 CNS
UACC-257 melanoma = system: UACC-257 melanoma
UACC-62 melanoma = system: UACC-62 melanoma
UO-31 renal = system: UO-31 renal
XF 498 CNS = system: XF 498 CNS
DLD-1 colon = system: DLD-1 colon
MCF7 breast = system: MCF7 breast
SNB-78 CNS = system: SNB-78 CNS

With `CNC(=O)c1cccc2c(Nc3ccc(NS(C)(=O)=O)cc3OC)c3cccc(C)c3nc12` as the compound, how does the TGI (786-0 renal) read?
The TGI was 0.413 µM.

And the TGI (A498 renal)?
Its TGI is 1.15 µM.

And the TGI (A549 NSCLC)?
Its TGI is 1.61 µM.

And the TGI (ACHN renal)?
Its TGI is 0.322 µM.

What about the TGI (CAKI-1 renal) of the same compound?
Its TGI is 1.41 µM.

What about the TGI (CCRF-CEM leukemia) of the same compound?
Its TGI is 0.197 µM.

And the TGI (COLO 205 colon)?
Its TGI is 5.24 µM.

And the TGI (DMS 114 small cell lung)?
The TGI was 1.25 µM.

And the TGI (DMS 273 small cell lung)?
Its TGI is 1.69 µM.

What about the TGI (EKVX NSCLC) of the same compound?
The TGI was 12.1 µM.

And the TGI (HCC-2998 colon)?
The TGI was 2.34 µM.

And the TGI (HCT-116 colon)?
The TGI was 2.86 µM.

And the TGI (HCT-15 colon)?
The TGI was 2.34 µM.

What about the TGI (HL-60(TB) leukemia) of the same compound?
Its TGI is 0.0552 µM.

And the TGI (HOP-18 NSCLC)?
Its TGI is 3.36 µM.

And the TGI (HOP-62 NSCLC)?
The TGI was 0.155 µM.

And the TGI (HOP-92 NSCLC)?
Its TGI is 3.67 µM.

And the TGI (HT29 colon)?
The TGI was 3.69 µM.

And the TGI (IGROV1 ovarian)?
Its TGI is 13.2 µM.

And the TGI (K-562 leukemia)?
The TGI was 4.79 µM.

What about the TGI (KM12 colon) of the same compound?
Its TGI is 2.42 µM.

What about the TGI (KM20L2 colon) of the same compound?
The TGI was 3.72 µM.

What about the TGI (LOX IMVI melanoma) of the same compound?
The TGI was 3.17 µM.

And the TGI (LXFL 529 NSCLC)?
The TGI was 6.74 µM.

And the TGI (M14 melanoma)?
Its TGI is 2.63 µM.

What about the TGI (M19-MEL melanoma) of the same compound?
The TGI was 8.54 µM.

And the TGI (MALME-3M melanoma)?
The TGI was 4.55 µM.

What about the TGI (MOLT-4 leukemia) of the same compound?
The TGI was 0.0512 µM.

What about the TGI (NCI-H226 lung) of the same compound?
Its TGI is 1.05 µM.

What about the TGI (NCI-H23 lung) of the same compound?
Its TGI is 0.58 µM.

What about the TGI (NCI-H460 lung) of the same compound?
Its TGI is 0.816 µM.

And the TGI (NCI-H522 lung)?
The TGI was 2.51 µM.

And the TGI (NCI/ADR-RES ovarian)?
The TGI was 9.36 µM.

And the TGI (OVCAR-3 ovarian)?
The TGI was 5.02 µM.

And the TGI (OVCAR-4 ovarian)?
Its TGI is 4.35 µM.

What about the TGI (OVCAR-5 ovarian) of the same compound?
Its TGI is 3.54 µM.

What about the TGI (OVCAR-8 ovarian) of the same compound?
Its TGI is 5.98 µM.

And the TGI (P388 leukemia)?
Its TGI is under 0.0384 µM.

What about the TGI (P388/ADR leukemia) of the same compound?
The TGI was 1.07 µM.

What about the TGI (RPMI-8226 leukemia) of the same compound?
Its TGI is 1.7 µM.

And the TGI (RXF 393 renal)?
The TGI was 3.52 µM.

What about the TGI (SF-268 CNS) of the same compound?
Its TGI is 8.58 µM.

What about the TGI (SF-295 CNS) of the same compound?
The TGI was 0.555 µM.

What about the TGI (SF-539 CNS) of the same compound?
The TGI was 0.661 µM.

What about the TGI (SK-MEL-2 melanoma) of the same compound?
Its TGI is 6.37 µM.

What about the TGI (SK-MEL-28 melanoma) of the same compound?
Its TGI is 10.9 µM.

And the TGI (SK-MEL-5 melanoma)?
The TGI was 1.9 µM.

And the TGI (SK-OV-3 ovarian)?
Its TGI is 0.907 µM.

And the TGI (SN12C renal)?
Its TGI is 0.927 µM.

And the TGI (SN12K1 renal)?
Its TGI is 1.61 µM.

What about the TGI (SNB-19 CNS) of the same compound?
The TGI was 5.04 µM.

What about the TGI (SNB-75 CNS) of the same compound?
The TGI was 1.34 µM.

And the TGI (SR leukemia)?
The TGI was 0.365 µM.

And the TGI (SW-620 colon)?
The TGI was 5.5 µM.

And the TGI (TK-10 renal)?
Its TGI is 8.2 µM.

And the TGI (U251 CNS)?
Its TGI is 0.719 µM.

And the TGI (UACC-257 melanoma)?
Its TGI is 10.6 µM.

What about the TGI (UACC-62 melanoma) of the same compound?
Its TGI is 1.38 µM.

And the TGI (UO-31 renal)?
The TGI was 2.89 µM.

What about the TGI (XF 498 CNS) of the same compound?
Its TGI is 3.25 µM.

How did the TGI (A498 renal) turn out when `CC(C)(C)OC(=O)NC1CCC(C(C)(C)C)CC1` (stereo not given) was run?
Its TGI is over 100 µM.

What about the TGI (A549 NSCLC) of the same compound?
Its TGI is over 100 µM.

What about the TGI (CCRF-CEM leukemia) of the same compound?
The TGI was over 100 µM.

And the TGI (COLO 205 colon)?
The TGI was over 100 µM.

What about the TGI (DLD-1 colon) of the same compound?
Its TGI is over 100 µM.

What about the TGI (DMS 114 small cell lung) of the same compound?
The TGI was over 100 µM.

What about the TGI (DMS 273 small cell lung) of the same compound?
Its TGI is 99.2 µM.

And the TGI (EKVX NSCLC)?
The TGI was over 100 µM.

And the TGI (HCC-2998 colon)?
Its TGI is over 100 µM.

What about the TGI (HCT-116 colon) of the same compound?
The TGI was over 100 µM.

What about the TGI (HCT-15 colon) of the same compound?
Its TGI is over 100 µM.

And the TGI (HL-60(TB) leukemia)?
Its TGI is 36.1 µM.

What about the TGI (HOP-18 NSCLC) of the same compound?
Its TGI is over 100 µM.

What about the TGI (HOP-62 NSCLC) of the same compound?
The TGI was over 100 µM.

What about the TGI (HT29 colon) of the same compound?
Its TGI is over 87.3 µM.

And the TGI (IGROV1 ovarian)?
The TGI was over 100 µM.

And the TGI (K-562 leukemia)?
The TGI was over 100 µM.

And the TGI (KM12 colon)?
Its TGI is over 100 µM.

And the TGI (KM20L2 colon)?
The TGI was over 100 µM.

What about the TGI (LOX IMVI melanoma) of the same compound?
The TGI was over 100 µM.

What about the TGI (M19-MEL melanoma) of the same compound?
The TGI was over 86.7 µM.

And the TGI (MALME-3M melanoma)?
Its TGI is over 93.8 µM.

What about the TGI (MCF7 breast) of the same compound?
The TGI was over 100 µM.

What about the TGI (MOLT-4 leukemia) of the same compound?
Its TGI is 67.2 µM.

And the TGI (NCI-H226 lung)?
Its TGI is over 100 µM.

And the TGI (NCI-H23 lung)?
Its TGI is over 100 µM.

What about the TGI (NCI-H460 lung) of the same compound?
Its TGI is over 100 µM.

And the TGI (NCI-H522 lung)?
The TGI was over 100 µM.

What about the TGI (NCI/ADR-RES ovarian) of the same compound?
The TGI was over 100 µM.

What about the TGI (OVCAR-3 ovarian) of the same compound?
Its TGI is over 100 µM.

And the TGI (OVCAR-4 ovarian)?
The TGI was over 100 µM.

And the TGI (OVCAR-5 ovarian)?
The TGI was over 100 µM.

What about the TGI (OVCAR-8 ovarian) of the same compound?
Its TGI is over 100 µM.

What about the TGI (P388 leukemia) of the same compound?
The TGI was 48.5 µM.

And the TGI (P388/ADR leukemia)?
Its TGI is over 100 µM.

What about the TGI (RPMI-8226 leukemia) of the same compound?
Its TGI is over 100 µM.

And the TGI (RXF 393 renal)?
Its TGI is over 92.2 µM.

What about the TGI (SF-268 CNS) of the same compound?
The TGI was over 100 µM.

And the TGI (SF-295 CNS)?
Its TGI is over 55.3 µM.

What about the TGI (SF-539 CNS) of the same compound?
Its TGI is over 100 µM.

And the TGI (SK-MEL-2 melanoma)?
The TGI was 71.3 µM.

What about the TGI (SK-MEL-28 melanoma) of the same compound?
Its TGI is over 100 µM.

What about the TGI (SK-MEL-5 melanoma) of the same compound?
The TGI was over 72.4 µM.

What about the TGI (SK-OV-3 ovarian) of the same compound?
The TGI was over 100 µM.

What about the TGI (SN12C renal) of the same compound?
Its TGI is over 100 µM.

And the TGI (SN12K1 renal)?
Its TGI is over 100 µM.

And the TGI (SNB-19 CNS)?
Its TGI is over 100 µM.

What about the TGI (SNB-75 CNS) of the same compound?
Its TGI is over 100 µM.

What about the TGI (SNB-78 CNS) of the same compound?
The TGI was over 100 µM.

And the TGI (SW-620 colon)?
Its TGI is over 100 µM.

And the TGI (U251 CNS)?
The TGI was over 100 µM.

And the TGI (UACC-257 melanoma)?
Its TGI is over 61.8 µM.

What about the TGI (UACC-62 melanoma) of the same compound?
The TGI was over 100 µM.

What about the TGI (UO-31 renal) of the same compound?
The TGI was over 100 µM.

What about the TGI (XF 498 CNS) of the same compound?
The TGI was over 96.5 µM.
